Measured values: patent US10098974B2, “Catalytic radiofluorination” (priority 2004, dated 2018)
Where two headings read alike, the source gives them in different places.

Columns and labels:
[1] = Biodistribution of FTTP in rats after intravenous administration
[2] = rat, microPET
Procedure: (§1) Rats (250-300 grams) or rabbits (3-4 Kg) were anesthetized and placed ventrally to the imaging position and 0.4-1 mCi of the FTPP was injected into the vain. Three-dimensional dynamic data were acquired in list mode for one hour starting from the injection of the radiolabeled ligand.
(§2) PET imaging was conducted with a microPET, P4 system (Concorde Microsystems Inc, Knoxville, Tenn.). The length of the field of view is 8 cm and the diameter is 22 cm allowing entire upper body imaging of the rat or rabbit during a single acquisition. The imaging parameters of this system are in-plane and axial resolution of 1.2 mm full width of photopeak measured at half maximal count.

[3] = rabbit
Procedure: as §1, §2
The rabbit was anesthetized, placed in the microPET camera (body marks in the camera positioning were made) and sequential images were obtained for ten minutes following the administration of 3 mCi of N-13-ammonia (FIG. 10). One hour later, FTPP was injected followed by 60 minute sequential imaging of the rabbit (FIG. 11). Image corrections for the remaining N-13-ammonia activity were made with an appropriate program. One day later, the same rabbit underwent an LAD occlusion protocol, positioned in the same camera field of view and the above dual agent imaging sequence was repeated.

[4] = system: C6 glioma cell line; details: from maximum accumulation at 30 minutes
[5] = system: MCF-7; details: MCF-7, period of 240 minutes
[6] = system: C-6BAG glioma; details: period of 240 minutes
[7] = system: CV-1 normal cell line
[8] = 5 min post administration (Table 1)
[9] = 30 min post administration (Table 1)
[10] = 60 min post administration (Table 1)

Molecule: O=[N+]([O-])[O-].[18F]c1ccc([P+](c2ccccc2)(c2ccccc2)c2ccccc2)cc1 [FTTP, [F-18]-(4-fluorophenyl)triphenylphosphonium nitrate]
- Heart/Blood ratio [1, 8]: 11 % ID/g
- Heart/Liver ratio [1, 8]: 5 % ID/g
- Heart/Lung ratio [1, 8]: 2 % ID/g
- Heart/Blood ratio [1, 9]: 75 % ID/g
- Heart/Liver ratio [1, 9]: 8 % ID/g
- Heart/Lung ratio [1, 9]: 5 % ID/g
- Heart/Blood ratio [1, 10]: 70 % ID/g
- Heart/Liver ratio [1, 10]: 8 % ID/g
- Heart/Lung ratio [1, 10]: 4 % ID/g
- Bone accumulation (indication of defluorination) ([1]; iv, 5 min): 0.31 ID/g
- Heart-to-lung ratio ([1]; iv, 5 min): 2.4
- Lung activity ([1]; iv, 5 min): 0.69 ID/g
- accumulation in heart relative to blood ([1]; iv, 5 min): 11 fold
- accumulation in heart relative to liver ([1]; iv, 5 min): 5 fold
- accumulation in the heart ([1]; iv, 5 min): 1.64 ID/g
- liver uptake ([1]; iv, 5 min): 0.18 ID/g
- Heart-to-lung ratio ([1]; iv, 30 min): 5.0
- Lung activity ([1]; iv, 30 min): 0.30 ID/g
- liver uptake ([1]; iv, 30 min): 0.17 ID/g
- uptake of radioactivity in the heart ([1]; iv, 30 min): 1.5 ID/g
- Bone accumulation (indication of defluorination) ([1]; iv, 60 min): 0.39 ID/g
- Heart-to-lung ratio ([1]; iv, 60 min): 3.2
- Lung activity ([1]; iv, 60 min): 0.38 ID/g
- liver uptake ([1]; iv, 60 min): 0.17 ID/g
- time after injection at which heart activity reaches a plateau [2]: 1 min
- myocardial retention ([3]; late images at 60 min): high myocardial retention
- time after injection at which heart activity reaches a plateau ([3]; microPET): 1 min

Molecule: [I-125]-p-iodophenyltriphenylphosponium nitrate [TPPI]
- cell retention [4]: partial washout
- cell retention [5]: High retention
- cell retention [6]: High retention
- cell uptake [7]: no significant uptake
